Holding throughout (type): functional
Conditions in all cases: time 16-20 hrs

One assay has as its system Escherichia coli. As to the kind of experiment: Antibacterial activity against TolC-deficient Escherichia coli assessed as inhibition of bacterial growth incubated for 16 to 20 hrs by Mueller-Hinton broth based two-fold serial dilution method.
In the next assay the test system is Staphylococcus aureus. As to the kind of experiment: Antibacterial activity against Staphylococcus aureus assessed as inhibition of bacterial growth incubated for 16 to 20 hrs by Mueller-Hinton broth based two-fold serial dilution method.
Another assay relates to Bacillus subtilis. As to the kind of experiment: Antibacterial activity against Bacillus subtilis E168 assessed as inhibition of bacterial growth incubated for 16 to 20 hrs by Mueller-Hinton broth based two-fold serial dilution method.

≈ marks a conversion by molar mass, not a printed value.

Two molecules from ChEMBL document CHEMBL5252576, “Stictamycin, an Aromatic Polyketide Antibiotic Isolated from a New Zealand Lichen-Sourced Streptomyces Species” (2023) can be followed below.

In general, MIC refers to the least concentration at which growth counts as inhibited.

Take `CC[C@]1(O)CC(=O)c2c(cc3cccc(O)c3c2O)[C@H]1C(C)=O`: the MIC in the assay with Escherichia coli turned out to be 32 µg/mL (≈ 102 µM); with Staphylococcus aureus, 2 µg/mL (≈ 6.36 µM); with Bacillus subtilis it was 32 µg/mL (≈ 102 µM).
Consider `NC[C@H]1O[C@H](O[C@H]2[C@H](O)[C@@H](O[C@H]3O[C@H](CO)[C@@H](O)[C@H](N)[C@H]3O)[C@H](N)C[C@@H]2N)[C@H](O)[C@@H](O)[C@@H]1O` [KANAMYCIN], for which the MIC with Escherichia coli was found to be 2 µg/mL (≈ 4.13 µM); in the assay on Staphylococcus aureus it was 1 µg/mL (≈ 2.06 µM); with Bacillus subtilis, 2 µg/mL (≈ 4.13 µM).
